Measured values: US20130274216A1 (priority 2012, published 2013)

How the values were obtained:
Aspergillus flavus = type: in vivo, murine
[1] = test system: Fusarium conidia infected murine cornea; assay: In vivo murine fungal keratitis model, neutrophil infiltration of the infected cornea; parameters: species or system C57BL/6 mice; settings: for neutrophil infiltration (neutrophils per 5 μm corneal section): 24 hours after infection, infected PBS or vehicle groups >200 neutrophils/section

SMILES | reduction in CFUs/eye (Aspergillus flavus; 72 hours after infection with Aspergillus, dosed qid for 48 hours, control approximately 15000 CFUs/eye, FIG. 3B) [%] | Aspergillus infection evaluated by RFP expression (Aspergillus flavus; fluorescence micrographs of murine corneas 72 hours after infection, FIG. 3A) | neutrophil infiltration (neutrophils per 5 μm corneal section) ([1]; 0.1% w/v test group) [neutrophils/section] | neutrophil infiltration (neutrophils per 5 μm corneal section) ([1]; 1% w/v test group) [neutrophils/section] | neutrophil infiltration, effect in words ([1]; test groups vs infected PBS/vehicle groups, 24 hours, FIG. 2)
C[C@@H]1C/C=C/C=C/C=C/C=C/[C@H](O[C@@H]2O[C@H](C)[C@@H](O)[C@H](N)[C@@H]2O)C[C@@H]2O[C@](O)(C[C@@H](O)C[C@H]3O[C@@H]3/C=C/C(=O)O1)C[C@H](O)[C@H]2C(=O)O [natamycin] | ~50 | suppressed | – | – | –
COc1ccc(Nc2nc(-c3cccs3)nc3cn[nH]c23)cc1OC [Compound 1] | – | – | < 100 | < 100 | dose-dependent reduction
